# Like-named read-outs stand apart in the source and are kept apart here.
# What was measured:
# [1] = target: EGFR Del19/C797S (Homo sapiens, UniProt P00533, C797S/DEL746-750); assay: Biochemical EGFR kinase inhibition assay (Lance Ultra TR-FRET), double mutant del19/C797S
# Procedure, shortened: (§1)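 Enzyme reactions lasted 1 hour at room temperature with test compounds between 0.003 and 10 μM, followed by 10 mM EDTA quench.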
# [2] = target: EGFR wildtype (WT) (Homo sapiens, UniProt P00533); assay: Biochemical EGFR kinase inhibition assay (Lance Ultra TR-FRET), wildtype
# Chain of EGFR wildtype (WT) (P00533 25-1210): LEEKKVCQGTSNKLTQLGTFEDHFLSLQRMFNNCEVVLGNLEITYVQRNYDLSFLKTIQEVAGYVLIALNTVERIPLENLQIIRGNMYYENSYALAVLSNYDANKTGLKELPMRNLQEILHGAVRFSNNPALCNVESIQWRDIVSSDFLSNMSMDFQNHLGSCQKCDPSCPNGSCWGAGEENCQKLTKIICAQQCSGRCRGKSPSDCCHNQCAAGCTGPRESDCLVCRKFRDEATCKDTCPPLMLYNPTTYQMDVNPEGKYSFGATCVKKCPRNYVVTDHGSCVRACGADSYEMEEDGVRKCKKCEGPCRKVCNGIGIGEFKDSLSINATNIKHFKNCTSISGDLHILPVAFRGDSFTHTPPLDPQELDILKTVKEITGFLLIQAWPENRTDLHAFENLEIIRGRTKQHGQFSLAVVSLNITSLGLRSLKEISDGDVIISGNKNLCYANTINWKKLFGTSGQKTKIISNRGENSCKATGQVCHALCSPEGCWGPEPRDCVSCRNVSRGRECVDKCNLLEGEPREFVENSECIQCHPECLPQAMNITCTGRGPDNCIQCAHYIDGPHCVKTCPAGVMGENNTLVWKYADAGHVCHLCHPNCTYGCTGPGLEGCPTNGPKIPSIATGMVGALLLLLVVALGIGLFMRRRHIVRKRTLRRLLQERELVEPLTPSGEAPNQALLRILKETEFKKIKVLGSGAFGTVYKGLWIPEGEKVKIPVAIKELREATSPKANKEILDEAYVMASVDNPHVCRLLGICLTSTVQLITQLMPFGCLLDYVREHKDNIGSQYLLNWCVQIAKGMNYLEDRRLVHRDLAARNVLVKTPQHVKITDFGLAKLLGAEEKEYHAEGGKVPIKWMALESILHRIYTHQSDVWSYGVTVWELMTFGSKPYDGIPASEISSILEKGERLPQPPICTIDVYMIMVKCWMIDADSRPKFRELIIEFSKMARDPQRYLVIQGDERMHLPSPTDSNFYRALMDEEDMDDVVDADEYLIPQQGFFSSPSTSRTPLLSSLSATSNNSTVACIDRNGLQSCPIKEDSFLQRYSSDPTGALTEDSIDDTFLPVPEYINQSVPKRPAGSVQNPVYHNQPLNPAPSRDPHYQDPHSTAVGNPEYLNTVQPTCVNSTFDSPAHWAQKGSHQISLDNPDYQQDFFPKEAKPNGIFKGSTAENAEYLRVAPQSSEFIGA
# Procedure, shortened: as §1
# [3] = target: EGFR L858R/C797S (Homo sapiens, UniProt P00533, C797S/L858R); assay: Biochemical EGFR kinase inhibition assay (Lance Ultra TR-FRET), double mutant L858R/C797S
# Chain of EGFR L858R/C797S (P00533 25-1210 C797S/L858R): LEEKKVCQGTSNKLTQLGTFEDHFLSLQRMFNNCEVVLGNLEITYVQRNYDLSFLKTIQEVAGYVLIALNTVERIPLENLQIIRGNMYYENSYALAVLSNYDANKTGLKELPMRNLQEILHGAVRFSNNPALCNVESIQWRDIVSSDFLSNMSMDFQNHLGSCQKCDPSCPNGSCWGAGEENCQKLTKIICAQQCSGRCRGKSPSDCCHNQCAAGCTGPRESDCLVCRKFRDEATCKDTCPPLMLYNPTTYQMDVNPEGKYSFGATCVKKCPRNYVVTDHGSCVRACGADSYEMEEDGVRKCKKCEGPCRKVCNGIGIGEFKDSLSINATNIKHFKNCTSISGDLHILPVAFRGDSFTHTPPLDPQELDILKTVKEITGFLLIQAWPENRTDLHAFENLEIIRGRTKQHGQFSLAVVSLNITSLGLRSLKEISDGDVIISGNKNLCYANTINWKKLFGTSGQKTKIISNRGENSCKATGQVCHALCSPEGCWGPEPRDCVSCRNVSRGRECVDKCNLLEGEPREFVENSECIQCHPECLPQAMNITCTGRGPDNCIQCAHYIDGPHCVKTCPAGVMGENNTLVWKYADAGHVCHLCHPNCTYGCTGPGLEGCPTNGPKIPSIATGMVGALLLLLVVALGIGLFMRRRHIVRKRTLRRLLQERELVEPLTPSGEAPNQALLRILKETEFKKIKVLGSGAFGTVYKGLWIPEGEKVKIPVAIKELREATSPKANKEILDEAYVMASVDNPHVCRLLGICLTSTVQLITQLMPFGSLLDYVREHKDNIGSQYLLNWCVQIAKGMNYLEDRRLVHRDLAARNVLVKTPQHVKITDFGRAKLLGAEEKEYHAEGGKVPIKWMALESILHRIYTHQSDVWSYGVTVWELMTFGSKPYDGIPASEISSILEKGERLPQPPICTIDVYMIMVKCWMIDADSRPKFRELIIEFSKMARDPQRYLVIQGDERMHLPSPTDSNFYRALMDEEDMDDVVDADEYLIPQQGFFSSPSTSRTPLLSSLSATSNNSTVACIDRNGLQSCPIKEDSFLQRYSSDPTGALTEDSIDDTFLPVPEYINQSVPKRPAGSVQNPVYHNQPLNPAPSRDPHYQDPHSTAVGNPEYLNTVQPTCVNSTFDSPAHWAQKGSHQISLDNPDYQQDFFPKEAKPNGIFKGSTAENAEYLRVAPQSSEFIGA
# Procedure, shortened: as §1
# [4] = target: EGFR Del19/T790M/C797S (Homo sapiens, UniProt P00533, C797S/DEL746-750/T790M); assay: Biochemical EGFR kinase inhibition assay (Lance Ultra TR-FRET), triple mutant del19/T790M/C797S
# Chain of EGFR Del19/T790M/C797S (P00533 with tags, fused parts or gaps DEL746-750/T790M/C797S): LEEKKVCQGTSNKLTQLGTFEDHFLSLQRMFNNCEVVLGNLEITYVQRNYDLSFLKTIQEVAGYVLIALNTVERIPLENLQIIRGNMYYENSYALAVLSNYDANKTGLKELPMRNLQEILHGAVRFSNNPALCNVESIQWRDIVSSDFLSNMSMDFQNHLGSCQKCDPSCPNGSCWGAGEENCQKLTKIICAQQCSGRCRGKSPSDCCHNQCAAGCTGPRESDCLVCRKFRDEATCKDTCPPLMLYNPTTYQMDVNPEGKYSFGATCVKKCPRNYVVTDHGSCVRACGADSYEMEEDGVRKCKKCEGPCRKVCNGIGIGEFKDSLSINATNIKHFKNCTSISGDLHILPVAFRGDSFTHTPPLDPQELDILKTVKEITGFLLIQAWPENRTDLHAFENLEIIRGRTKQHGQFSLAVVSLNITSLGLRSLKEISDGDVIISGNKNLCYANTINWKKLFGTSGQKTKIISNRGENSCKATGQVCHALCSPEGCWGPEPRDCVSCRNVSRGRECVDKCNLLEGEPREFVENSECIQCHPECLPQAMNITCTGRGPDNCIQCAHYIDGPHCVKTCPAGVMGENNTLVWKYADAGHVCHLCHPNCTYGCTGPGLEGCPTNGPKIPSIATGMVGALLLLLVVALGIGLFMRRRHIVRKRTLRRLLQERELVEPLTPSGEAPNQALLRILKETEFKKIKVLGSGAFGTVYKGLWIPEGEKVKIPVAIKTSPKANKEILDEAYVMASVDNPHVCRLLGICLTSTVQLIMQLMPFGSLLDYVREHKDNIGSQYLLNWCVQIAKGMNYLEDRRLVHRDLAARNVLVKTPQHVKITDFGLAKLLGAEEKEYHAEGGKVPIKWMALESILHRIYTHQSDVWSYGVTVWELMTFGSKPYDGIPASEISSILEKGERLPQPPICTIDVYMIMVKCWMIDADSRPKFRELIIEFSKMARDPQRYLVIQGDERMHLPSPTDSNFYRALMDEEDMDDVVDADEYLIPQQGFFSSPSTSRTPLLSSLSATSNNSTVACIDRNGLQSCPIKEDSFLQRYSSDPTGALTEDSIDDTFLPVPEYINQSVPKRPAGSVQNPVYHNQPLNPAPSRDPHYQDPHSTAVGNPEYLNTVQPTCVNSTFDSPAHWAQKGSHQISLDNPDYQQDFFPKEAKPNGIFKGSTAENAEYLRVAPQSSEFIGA
# Procedure, shortened: as §1
# [5] = target: EGFR L858R/T790M/C797S (Homo sapiens, UniProt P00533, C797S/L858R/T790M); assay: Biochemical EGFR kinase inhibition assay (Lance Ultra TR-FRET), triple mutant L858R/T790M/C797S
# Chain of EGFR L858R/T790M/C797S (P00533 25-1210 T790M/C797S/L858R): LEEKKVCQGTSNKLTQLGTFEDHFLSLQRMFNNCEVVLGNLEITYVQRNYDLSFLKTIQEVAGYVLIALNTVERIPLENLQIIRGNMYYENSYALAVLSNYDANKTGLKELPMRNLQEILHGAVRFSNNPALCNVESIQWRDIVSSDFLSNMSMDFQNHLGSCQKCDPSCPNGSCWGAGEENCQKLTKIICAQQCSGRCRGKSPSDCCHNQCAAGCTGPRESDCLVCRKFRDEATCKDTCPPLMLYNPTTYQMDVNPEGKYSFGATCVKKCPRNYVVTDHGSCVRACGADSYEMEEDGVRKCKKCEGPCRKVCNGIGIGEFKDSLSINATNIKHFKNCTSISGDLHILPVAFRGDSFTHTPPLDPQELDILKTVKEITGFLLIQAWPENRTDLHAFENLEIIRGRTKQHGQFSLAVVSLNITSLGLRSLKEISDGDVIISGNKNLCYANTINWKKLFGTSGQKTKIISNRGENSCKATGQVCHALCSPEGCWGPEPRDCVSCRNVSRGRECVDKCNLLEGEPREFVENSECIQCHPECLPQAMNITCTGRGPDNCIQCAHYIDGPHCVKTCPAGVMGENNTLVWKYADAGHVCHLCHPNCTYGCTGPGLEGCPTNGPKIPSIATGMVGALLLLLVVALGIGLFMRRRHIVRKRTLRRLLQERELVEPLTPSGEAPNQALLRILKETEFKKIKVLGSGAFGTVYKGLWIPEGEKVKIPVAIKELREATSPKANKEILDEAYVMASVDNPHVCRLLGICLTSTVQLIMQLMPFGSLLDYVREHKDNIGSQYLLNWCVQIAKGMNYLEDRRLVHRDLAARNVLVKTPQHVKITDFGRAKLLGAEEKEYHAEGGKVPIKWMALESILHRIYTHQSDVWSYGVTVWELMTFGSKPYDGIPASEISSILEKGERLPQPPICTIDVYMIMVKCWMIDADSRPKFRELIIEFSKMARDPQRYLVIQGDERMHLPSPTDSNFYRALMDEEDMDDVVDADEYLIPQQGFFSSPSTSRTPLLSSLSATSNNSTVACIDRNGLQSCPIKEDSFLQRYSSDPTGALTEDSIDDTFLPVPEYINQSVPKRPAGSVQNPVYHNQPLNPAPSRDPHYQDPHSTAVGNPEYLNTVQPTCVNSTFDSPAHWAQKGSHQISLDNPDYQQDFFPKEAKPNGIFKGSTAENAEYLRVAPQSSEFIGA
# Procedure, shortened: as §1
# [6] = IC50 Del19/C797S (nM), 100 μM ATP
# [7] = Km ATP, read-out: IC50 Del19/C797S (nM), Km ATP
# [8] = Km ATP, read-out: IC50 WT (nM), Km ATP
# [9] = IC50 L858R/C797S (nM), 100 μM ATP
# [10] = Km ATP, read-out: IC50 L858R/C797S (nM), Km ATP
# [11] = IC50 Del19/T790M/C797S (nM), 100 μM ATP
# [12] = Km ATP, read-out: IC50 Del19/T790M/C797S (nM), Km ATP
# [13] = IC50 L858R/T790M/C797S (nM), 100 μM ATP
# [14] = Km ATP, read-out: IC50 L858R/T790M/C797S (nM), Km ATP
smiles,measurement,setting,value
"CN1CCC(C#Cc2cnc(Nc3ccnc(-c4cnn(S(=O)(=O)C5CC5)c4)n3)cc2N2CCC3(CCCO3)CC2)C1 (stereo not shown) [Example 372, 2-(1-(Cyclopropylsulfonyl)-1H-pyrazol-4-yl)-N-(5-((1-methylpyrrolidin-3-yl)ethynyl)-4-(1-oxa-8-azaspiro[4.5]decan-8-yl)pyridin-2-yl)pyrimidin-4-amine]",IC50,[1]; [6],1.6 nM
same,IC50,[1]; [7],0.8 nM
same,IC50,"[2]; IC50 WT (nM), 100 μM ATP",5110 nM
same,IC50,[2]; [8],5.5 nM
same,IC50,[3]; [9],22.9 nM
same,IC50,[3]; [10],1 nM
same,IC50,[4]; [11],0.3 nM
same,IC50,[4]; [12],0.2 nM
same,IC50,[5]; [13],0.3 nM
same,IC50,[5]; [14],0.1 nM
"CN1CCC(C#Cc2cnc(Nc3ccnc(-c4cnn(S(=O)(=O)C5CC5)c4)n3)cc2N2CCC3(CCO3)CC2)C1 (stereo not shown) [Example 373, 2-(1-(Cyclopropylsulfonyl)-1H-pyrazol-4-yl)-N-(5-((1-methylpyrrolidin-3-yl)ethynyl)-4-(1-oxa-7-azaspiro[3.5]nonan-7-yl)pyridin-2-yl)pyrimidin-4-amine]",IC50,[1]; [6],1.8 nM
same,IC50,[1]; [7],1.6 nM
same,IC50,"[2]; IC50 WT (nM), 100 μM ATP",9540 nM
same,IC50,[2]; [8],10.8 nM
same,IC50,[3]; [9],41.6 nM
same,IC50,[3]; [10],2.5 nM
same,IC50,[4]; [11],0.2 nM
same,IC50,[4]; [12],0.2 nM
same,IC50,[5]; [13],0.4 nM
same,IC50,[5]; [14],0.1 nM
"O=S(=O)(C1CC1)n1cc(-c2nccc(Nc3cc(NC4CCC(CO)CC4)c(C#CC4CCCO4)cn3)n2)cn1 (stereo not shown) [Example 374, ((1s,4s)-4-((2-((2-(1-(Cyclopropylsulfonyl)-1H-pyrazol-4-yl)pyrimidin-4-yl)amino)-5-((tetrahydrofuran-2-yl)ethynyl)pyridin-4-yl)amino)cyclohexyl)methanol]",IC50,[1]; [6],2.4 nM
same,IC50,[1]; [7],1.3 nM
same,IC50,"[2]; IC50 WT (nM), 100 μM ATP",9810 nM
same,IC50,[2]; [8],10.4 nM
same,IC50,[3]; [9],75.1 nM
same,IC50,[3]; [10],4.1 nM
same,IC50,[4]; [11],0.3 nM
same,IC50,[4]; [12],0.3 nM
same,IC50,[5]; [13],0.6 nM
same,IC50,[5]; [14],0.3 nM
"O=S(=O)(C1CC1)n1cc(-c2nccc(Nc3cc(NCC4CCC(O)CC4)c(C#CC4CCCO4)cn3)n2)cn1 (stereo not shown) [Example 375, (1 r,4r)-4-(((2-((2-(1-(Cyclopropylsulfonyl)-1H-pyrazol-4-yl)pyrimidin-4-yl)amino)-5-((tetrahydrofuran-2-yl)ethynyl)pyridin-4-yl)amino)methyl)cyclohexan-1-ol]",IC50,[1]; [6],34.8 nM
same,IC50,[1]; [7],13.1 nM
same,IC50,"[2]; IC50 WT (nM), 100 μM ATP",> 10000 nM
same,IC50,[2]; [8],122 nM
same,IC50,[3]; [9],1920 nM
same,IC50,[3]; [10],82 nM
same,IC50,[4]; [11],3.2 nM
same,IC50,[4]; [12],2.5 nM
same,IC50,[5]; [13],8 nM
same,IC50,[5]; [14],1.3 nM
"O=S(=O)(C1CC1)n1cc(-c2nccc(Nc3cc(NC4CCC(O)CC4)c(C#CC4CCCO4)cn3)n2)cn1 (stereo not shown) [Example 376, (1s,4s)-4-((2-((2-(1-(Cyclopropylsulfonyl)-1H-pyrazol-4-yl)pyrimidin-4-yl)amino)-5-((tetrahydrofuran-2-yl)ethynyl)pyridin-4-yl)amino)cyclohexan-1-ol]",IC50,[1]; [6],2.5 nM
same,IC50,[1]; [7],1.4 nM
same,IC50,"[2]; IC50 WT (nM), 100 μM ATP",> 10000 nM
same,IC50,[2]; [8],15.1 nM
same,IC50,[3]; [9],102 nM
same,IC50,[3]; [10],7.8 nM
same,IC50,[4]; [11],0.5 nM
same,IC50,[4]; [12],0.3 nM
same,IC50,[5]; [13],1.1 nM
same,IC50,[5]; [14],3.4 nM
"CC1(O)CCC(CNc2cc(Nc3ccnc(-c4cnn(S(=O)(=O)C5CC5)c4)n3)ncc2C#CC2CCCO2)CC1 (stereo not shown) [Example 377, (1 r,4r)-4-(((2-((2-(1-(Cyclopropylsulfonyl)-1H-pyrazol-4-yl)pyrimidin-4-yl)amino)-5-((tetrahydrofuran-2-yl)ethynyl)pyridin-4-yl)amino)methyl)-1-methylcyclohexan-1-ol]",IC50,[1]; [6],34.6 nM
same,IC50,[1]; [7],20.3 nM
same,IC50,"[2]; IC50 WT (nM), 100 μM ATP",> 10000 nM
same,IC50,[2]; [8],132 nM
same,IC50,[3]; [9],1550 nM
same,IC50,[3]; [10],52.2 nM
same,IC50,[4]; [11],4.1 nM
same,IC50,[4]; [12],3 nM
same,IC50,[5]; [13],10.6 nM
same,IC50,[5]; [14],1.2 nM
"CC1(CO)CCN(c2cc(Nc3ccnc(-c4cnn(S(=O)(=O)C5CC5)c4)n3)ncc2C#CC2CCCO2)CC1 (stereo not shown) [Example 378, (1-(2-((2-(1-(Cyclopropylsulfonyl)-1H-pyrazol-4-yl)pyrimidin-4-yl)amino)-5-((tetrahydrofuran-2-yl)ethynyl)pyridin-4-yl)-4-methylpiperidin-4-yl)methanol]",IC50,[1]; [6],1 nM
same,IC50,[1]; [7],0.5 nM
same,IC50,"[2]; IC50 WT (nM), 100 μM ATP",2900 nM
same,IC50,[2]; [8],3.9 nM
same,IC50,[3]; [9],34 nM
same,IC50,[3]; [10],1.3 nM
same,IC50,[4]; [11],0.3 nM
same,IC50,[4]; [12],0.1 nM
same,IC50,[5]; [13],0.4 nM
same,IC50,[5]; [14],0.1 nM
"O=S(=O)(C1CC1)n1cc(-c2nccc(Nc3cc(N[C@H]4CC[C@@H](CO)CC4)c(C#Cc4cnn(CCF)c4)cn3)n2)cn1 [Example 379, ((1s,4s)-4-((2-((2-(1-(Cyclopropylsulfonyl)-1H-pyrazol-4-yl)pyrimidin-4-yl)amino)-5-((1-(2-fluoroethyl)-1H-pyrazol-4-yl)ethynyl)pyridin-4-yl)amino)cyclohexyl)methanol]",IC50,[1]; [6],3.9 nM
same,IC50,[1]; [7],1.9 nM
same,IC50,"[2]; IC50 WT (nM), 100 μM ATP",> 10000 nM
same,IC50,[2]; [8],9.7 nM
same,IC50,[3]; [9],30.1 nM
same,IC50,[3]; [10],1.9 nM
same,IC50,[4]; [11],0.7 nM
same,IC50,[4]; [12],0.6 nM
same,IC50,[5]; [13],0.8 nM
same,IC50,[5]; [14],0.4 nM
"C[C@]1(O)CC[C@H](CNc2cc(Nc3ccnc(-c4cnn(S(=O)(=O)C5CC5)c4)n3)ncc2C#Cc2cnn(CCF)c2)CC1 [Example 380, (1 r,4r)-4-(((2-((2-(1-(Cyclopropylsulfonyl)-1H-pyrazol-4-yl)pyrimidin-4-yl)amino)-5-((1-(2-fluoroethyl)-1H-pyrazol-4-yl)ethynyl)pyridin-4-yl)amino)methyl)-1-methylcyclohexan-1-ol]",IC50,[1]; [6],58.7 nM
same,IC50,[1]; [7],32.5 nM
same,IC50,"[2]; IC50 WT (nM), 100 μM ATP",> 10000 nM
same,IC50,[2]; [8],114 nM
same,IC50,[3]; [9],1170 nM
same,IC50,[3]; [10],32.6 nM
same,IC50,[4]; [11],1.5 nM
same,IC50,[4]; [12],2.4 nM
same,IC50,[5]; [13],5.4 nM
same,IC50,[5]; [14],2.6 nM
"O=S(=O)(C1CC1)n1cc(-c2nccc(Nc3cc(NC[C@H]4CC[C@H](CO)CC4)c(C#Cc4cnn(CCF)c4)cn3)n2)cn1 [Example 381, ((1 r,4r)-4-(((2-((2-(1-(Cyclopropylsulfonyl)-1H-pyrazol-4-yl)pyrimidin-4-yl)amino)-5-((1-(2-fluoroethyl)-1H-pyrazol-4-yl)ethynyl)pyridin-4-yl)amino)methyl)cyclohexyl)methanol]",IC50,[1]; [6],75.5 nM
same,IC50,[1]; [7],33.3 nM
same,IC50,"[2]; IC50 WT (nM), 100 μM ATP",> 10000 nM
same,IC50,[2]; [8],226 nM
same,IC50,[3]; [9],1290 nM
same,IC50,[3]; [10],37.9 nM
same,IC50,[4]; [11],3.1 nM
same,IC50,[4]; [12],2.9 nM
same,IC50,[5]; [13],7.9 nM
same,IC50,[5]; [14],3.4 nM
"CNCC1(F)CCN(c2cc(Nc3ccnc(-c4cnn(S(=O)(=O)C5CC5)c4)n3)ncc2C#Cc2cnn(C)c2)CC1 [Example 382, 2-(1-(Cyclopropylsulfonyl)-1H-pyrazol-4-yl)-N-(4-(4-fluoro-4-((methylamino)methyl)piperidin-1-yl)-5-((1-methyl-1H-pyrazol-4-yl)ethynyl)pyridin-2-yl)pyrimidin-4-amine]",IC50,[1]; [6],2.9 nM
same,IC50,[1]; [7],2.1 nM
same,IC50,"[2]; IC50 WT (nM), 100 μM ATP",5000 nM
same,IC50,[2]; [8],10.4 nM
same,IC50,[3]; [9],32.4 nM
same,IC50,[3]; [10],5.5 nM
same,IC50,[4]; [11],0.2 nM
same,IC50,[4]; [12],0.2 nM
same,IC50,[5]; [13],0.4 nM
same,IC50,[5]; [14],0.2 nM
"Cn1cc(C#Cc2cnc(Nc3ccnc(-c4cnn(S(=O)(=O)C5CC5)c4)n3)cc2N2CCC(F)(CNCCF)CC2)cn1 [Example 383, 2-(1-(Cyclopropylsulfonyl)-1H-pyrazol-4-yl)-N-(4-(4-fluoro-4-(((2-fluoroethyl)amino)methyl)piperidin-1-yl)-5-((1-methyl-1H-pyrazol-4-yl)ethynyl)pyridin-2-yl)pyrimidin-4-amine]",IC50,[1]; [6],8.2 nM
same,IC50,[1]; [7],3.7 nM
same,IC50,"[2]; IC50 WT (nM), 100 μM ATP",> 10000 nM
same,IC50,[2]; [8],40.8 nM
same,IC50,[3]; [9],86.8 nM
same,IC50,[3]; [10],14.5 nM
same,IC50,[4]; [11],1.2 nM
same,IC50,[4]; [12],1 nM
same,IC50,[5]; [13],1.2 nM
same,IC50,[5]; [14],0.6 nM
"CN(C)C[C@@H]1CCCN(c2cc(Nc3ccnc(-c4cnn(S(=O)(=O)C5CC5)c4)n3)ncc2C#Cc2cnn(C)c2)C1 [Example 384, (S)-2-(1-(Cyclopropylsulfonyl)-1H-pyrazol-4-yl)-N-(4-(3-((dimethylamino)methyl)piperidin-1-yl)-5-((1-methyl-1H-pyrazol-4-yl)ethynyl)pyridin-2-yl)pyrimidin-4-amine]",IC50,[1]; [6],10.9 nM
same,IC50,"[2]; IC50 WT (nM), 100 μM ATP",> 10000 nM
same,IC50,[3]; [9],49.6 nM
same,IC50,[4]; [11],1.3 nM
same,IC50,[5]; [13],3.1 nM
"CN(C)C[C@@H]1CCCN(c2cc(Nc3ccnc(-c4cnn(S(=O)(=O)C5CC5)c4)n3)ncc2C#Cc2cnn(CCF)c2)C1 [Example 385, (S)-2-(1-(Cyclopropylsulfonyl)-1H-pyrazol-4-yl)-N-(4-(3-((dimethylamino)methyl)piperidin-1-yl)-5-((1-(2-fluoroethyl)-1H-pyrazol-4-yl)ethynyl)pyridin-2-yl)pyrimidin-4-amine]",IC50,[1]; [6],11.2 nM
same,IC50,"[2]; IC50 WT (nM), 100 μM ATP",> 10000 nM
same,IC50,[3]; [9],37.6 nM
same,IC50,[4]; [11],0.7 nM
same,IC50,[5]; [13],2.1 nM

# From patent US11981658B2, “Substituted aminopyridine compounds as EGFR inhibitors” (YUHAN CORPORATION, priority 2021, dated 2024)
